Results reported in patent US20230391783A1, “COMPOUND CONTAINING 2,4-THIAZOLE RING, PREPARATION METHOD THEREFOR, AND APPLICATION THEREOF” (SHANDONG UNIVERSITY, priority 2021, published 2023).

System: lymphocytes (fresh spleen cells)
Experiment: Lymphocyte proliferation assay (ConA-induced spleen cells)
Format: cell-based, rat
Conditions: 48 hours; for IC50: Rattus norvegicus, inhibition of lymphocyte proliferation, 5 μg/mL ConA; for Inhibition rate (%): lymphocyte proliferation induced with 5 μg/mL ConA, test concentration not given
Method: Lymphocytotoxicity test: rats were euthanized by spinal dislocation method, their spleens were aseptically removed and ground to make a single cell suspension. After removing red blood cells with 2 mL of red blood cell lysis buffer, the cell concentration was adjusted to 2×10^6 cells/mL using RPMI-1640 medium containing 10% fetal bovine serum (FBS). Next, 100 μL of the 2×10^6 cells/mL cell suspension and 100 μL of the appropriate concentration of the tested compound were added to each well of a 96-well plate, and the plate was incubated at 37° C. with 5% CO2 for 48 hours. At the end of the incubation period, 10 μL of CCK8 was added to each well, and the plate was returned to the incubator for 5-7 hours. The OD450 value was then measured at 450 nm using an enzyme-linked immunosorbent assay reader.
Lymphocyte proliferation assay: fresh spleen cells at a concentration of 2×10^6 cells/mL were incubated for 48 hours in an incubator maintained at 37° C. and 5% CO2 for 48 hours, and the culture medium was induced for cell proliferation with 5 μg/mL of ConA, and the appropriate concentration of the tested compound was added to test its inhibitory activity on lymphocyte proliferation. The test results of some compounds are shown in the table below and figures accompanying the application: […]

Compound	IC50	Inhibition rate (%)
O=C(c1csc(-c2cnn3cccnc23)n1)N1CCN(c2cccnc2)CC1 [IA-23]	350 ± 17 nM	60.57%
O=C(NCCc1ccccn1)c1csc(-c2cnn3cccnc23)n1 [IA-21]	488 ± 22 nM	44.14%
O=C(NCc1cccnc1)c1csc(NC(=O)c2cnn3cccnc23)n1 [IA-2]	439 ± 24.2 nM	65.17%
O=C(OCc1cn(CCCCCCBr)nn1)c1csc(C(=O)c2c[nH]c3ccccc23)n1 [IIB-3]	468 ± 20.1 nM	39.79%
O=C(NCc1ccc(F)cc1F)c1csc(C(=O)c2c[nH]c3ccccc23)n1 [IIA-14]	–	37.99%
Cc1c(COC(=O)c2csc(C(=O)c3c[nH]c4ccccc34)n2)cccc1-c1ccccc1 [IIA-11]	–	25.08%
O=C(c1nc(C(=O)N2C[C@H](O)C[C@H]2C(=O)O)cs1)c1c[nH]c2ccccc12 [IIA-23]	439 ± 25.3 nM	58.56%
O=C(NCCc1cccnc1)c1csc(-c2cnn3cccnc23)n1 [IA-12]	236 ± 17.2 nM	83.63%
O=C(c1csc(-c2cnn3cccnc23)n1)N1CCC[C@H]1c1cc(F)ccc1F [IA-17]	436 ± 33.4 nM	46.55%
CC(C)=CCC/C(C)=C/CNC(=O)c1csc(C(=O)c2c[nH]c3ccccc23)n1 [IIA-30]	–	26.88%
O=C(c1nc(C(=O)N2CCCCC2C(=O)O)cs1)c1c[nH]c2ccccc12 (stereo not shown) [IIA-22]	479 ± 9.88 nM	53.75%
O=C(NCCc1ccncc1)c1csc(C(=O)c2c[nH]c3ccccc23)n1 [IIA-20]	–	42.64%
O=C(NCc1ccc(F)cc1F)c1csc(-c2cnn3ccccc23)n1 [IA-5]	–	47.15%
O=C(NCCCN1CCCC1)c1csc(C(=O)c2c[nH]c3ccccc23)n1 [IIA-15]	–	28.53%
O=C(Nc1cccnc1)c1csc(C(=O)c2c[nH]c3ccccc23)n1 [IIA-17]	–	59.31%
Nc1ccccc1C(=O)CC(N)C(=O)O (stereo not shown) [KYN, kynurenine, reference compound]	–	51.65%
COC(=O)C1CCCCN1C(=O)c1csc(-c2cnn3cccnc23)n1 (stereo not shown) [IA-16]	–	28.83%
CC(C)=CCOC(=O)c1csc(-c2cnn3cccnc23)n1 [IA-4]	438 ± 12.3 nM	28.23%
O=C(NCCC(F)(F)F)c1csc(-c2cnn3cccnc23)n1 [IA-18]	–	43.09%
O=C(Nc1ccccc1)c1csc(-c2cnn3cccnc23)n1 [IA-6]	–	40.69%

Compound	IC50	Inhibition rate (%)
CC(C)=CCC/C(C)=C/CC/C(C)=C/COC(=O)c1csc(C(=O)c2c[nH]c3ccccc23)n1 [IIA-2]	–	25.83%
O=C(NC1CCC(C(F)(F)F)CC1)c1csc(-c2cnn3cccnc23)n1 (stereo not shown) [IA-20]	–	42.49%
COC(=O)C1CCCCN1C(=O)c1csc(C(=O)c2c[nH]c3ccccc23)n1 (stereo not shown) [IIA-25]	–	49.85%
O=C(NCc1cncnc1)c1csc(-c2cnn3cccnc23)n1 [IA-22]	–	32.73%
O=C(NCCC(F)(F)F)c1csc(C(=O)c2c[nH]c3ccccc23)n1 [IIA-29]	–	43.54%
O=C(NCC(F)(F)F)c1csc(C(=O)c2c[nH]c3ccccc23)n1 [IIA-27]	–	51.8%
O=C(Nc1cccnc1)c1csc(-c2cnn3cccnc23)n1 [IA-10]	421 ± 21.1 nM	59.61%
O=C(NCc1cccnc1)c1csc(C(=O)c2c[nH]c3ccccc23)n1 [IIA-6]	479 ± 14.2 nM	56.46%
CC(C)=CCC/C(C)=C/COC(=O)c1csc(-c2cnn3cccnc23)n1 [IA-7]	487 ± 18.3 nM	52.55%
O=C(c1nc(C(=O)N2CCC[C@H]2c2ccccc2)cs1)c1c[nH]c2ccccc12 [IIA-18]	–	50.6%
O=C(NCc1ccc(Cl)cc1Cl)c1csc(-c2cnn3cccnc23)n1 [IA-8]	–	43.39%
CCC(CCC(C)C1CCC2C3CC=C4CC(OC(=O)c5csc(C(=O)c6c[nH]c7ccccc67)n5)CCC4(C)C3CCC12C)C(C)C (stereo not shown) [IIA-9]	–	48.2%
O=C(NCc1ccccc1)c1csc(-c2cnn3cccnc23)n1 [IA-11]	263 ± 13.4 nM	70.42%
CC(C)CCCC(C)C1CCC2C3CC=C4CC(OC(=O)c5csc(C(=O)c6c[nH]c7ccccc67)n5)CCC4(C)C3CCC12C (stereo not shown) [IIA-8]	–	50.45%
C#COC(=O)c1csc(C(=O)c2c[nH]c3ccccc23)n1 [IIA-3]	–	47.15%
Cc1cnc2c(-c3nc(C(=O)NCCc4ccccn4)cs3)cnn2c1 [IA-25]	–	37.24%
O=C(c1nc(C(=O)N2CCC[C@H]2c2ccncc2)cs1)c1c[nH]c2ccccc12 [IIA-21]	–	54.35%
COC(=O)[C@@H]1C[C@@H](O)CN1C(=O)c1csc(C(=O)c2c[nH]c3ccccc23)n1 [IIA-26]	–	45.05%
CC(C)=CCOC(=O)c1csc(C(=O)c2c[nH]c3ccccc23)n1 [IIA-4]	–	48.95%
O=C(c1csc(-c2cnn3cccnc23)n1)N1CCC[C@H]1c1ccccc1 [IA-9]	399 ± 15.2 nM	58.26%

Compound	IC50	Inhibition rate (%)
COC(=O)[C@@H]1C[C@@H](O)CN1C(=O)c1csc(-c2cnn3cccnc23)n1 [IA-15]	–	30.78%
CC1CCC2(OC1)OC1CC3C4CC=C5CC(OC(=O)c6csc(C(=O)c7c[nH]c8ccccc78)n6)CCC5(C)C4CCC3(C)C1C2C (stereo not shown) [IIA-7]	–	38.74%
O=C(NC(CO)C(=O)O)c1csc(C(=O)c2c[nH]c3ccccc23)n1 (stereo not shown) [IIA-24]	421 ± 19.9 nM	59.91%
CC1CCC2(OC1)OC1CC3C4CC=C5CC(NC(=O)c6csc(C(=O)c7c[nH]c8ccccc78)n6)CCC5(C)C4CCC3(C)C1C2C (stereo not shown) [IIA-10]	–	23.57%
O=C(OCc1cn(CCc2ccccc2)nn1)c1csc(C(=O)c2c[nH]c3ccccc23)n1 [IIB-1]	–	45.65%
C=CC[C@@H]1/C=C(\C)C[C@H](C)C[C@H](OC)[C@H]2O[C@@](O)(C(=O)C(=O)N3CCCC[C@H]3C(=O)O[C@H](/C(C)=C/[C@@H]3CC[C@@H](O)[C@H](OC)C3)[C@H](C)[C@@H](O)CC1=O)[C@H](C)C[C@@H]2OC [Tacrolimus, reference compound]	504 ± 16.2 nM	57.54%
O=C(c1csc(-c2cnn3cccnc23)n1)N1CCC[C@H]1c1cccnc1 [IA-1]	210 ± 8.87 nM	81.38%
CC(=O)NCCNC(=O)c1csc(C(=O)c2c[nH]c3ccccc23)n1 [IIA-12]	–	27.93%
O=C(c1nc(C(=O)N2CCC[C@H]2c2cccnc2)cs1)c1c[nH]c2ccccc12 [IIA-1]	–	65.32%
O=C(c1csc(-c2cnn3cccnc23)n1)N1CCC[C@H]1c1ccncc1 [IA-13]	410 ± 33.5 nM	59.01%
O=C(OCc1cn(CCCCCCO)nn1)c1csc(C(=O)c2c[nH]c3ccccc23)n1 [IIB-4]	–	21.17%
O=C(OCc1cn(CC23CC4CC(CC(C4)C2)C3)nn1)c1csc(C(=O)c2c[nH]c3ccccc23)n1 [IIB-5]	–	59.01%
CC(C)=CCC/C(C)=C/CNC(=O)c1csc(-c2cnn3cccnc23)n1 [IA-24]	457 ± 30.6 nM	55.71%
COC(=O)C(CO)NC(=O)c1csc(C(=O)c2c[nH]c3ccccc23)n1 (stereo not shown) [IIA-13]	–	43.99%
O=C(NCC(O)C(F)(F)F)c1csc(-c2cnn3cccnc23)n1 (stereo not shown) [IA-19]	–	41.89%
CC(C)=CCC/C(C)=C/COC(=O)c1csc(C(=O)c2c[nH]c3ccccc23)n1 [IIA-5]	–	57.51%
O=C(c1nc(C(=O)N2CCCC2c2cc(F)ncc2F)cs1)c1c[nH]c2ccccc12 (stereo not shown) [IIA-28]	–	54.05%
O=C(NCc1ccccc1)c1csc(C(=O)c2c[nH]c3ccccc23)n1 [IIA-19]	–	46.55%
COC(=O)c1csc(C(=O)c2c[nH]c3ccccc23)n1 [ITE, reference compound]	–	57.96%
O=C(OCc1cn(Cc2ccc3ccccc3c2)nn1)c1csc(C(=O)c2c[nH]c3ccccc23)n1 [IIB-2]	–	49.4%
